Measurements published in patent US8530653B2, “Enzyme inhibiting compounds” (Chelsea Therapeutics, Inc., priority 2009, dated 2013).

target: T1, human dihydrofolate reductase (DHFR) (Homo sapiens, UniProt P00374); assay: Inhibition of human DHFR (spectrophotometric, decrease in absorbance at 340 nm); format: biochemical; settings: recombinant human DHFR 0.2 μg/mL, 0.1 mM dihydrofolate, 0.1 mM NADPH, pH 7.3, 37° C., 1% DMSO, triplicate
T1 sequence (P00374 1-187): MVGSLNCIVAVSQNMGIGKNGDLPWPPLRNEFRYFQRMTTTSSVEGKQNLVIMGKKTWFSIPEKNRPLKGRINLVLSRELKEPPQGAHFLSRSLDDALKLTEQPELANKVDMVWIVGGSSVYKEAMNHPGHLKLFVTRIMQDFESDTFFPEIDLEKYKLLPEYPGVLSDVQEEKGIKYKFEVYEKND
Protocol: The activity of multiple compounds as inhibitors of human dihydrofolate reductase (DHFR) was evaluated. The dry test compounds were dissolved in 100% DMSO at a concentration of 10 mM. For the test assays, the compounds were serially diluted in 100% DMSO and added to the assays so that the final concentration of DMSO in the assays was 1%.
The final assay conditions for the human DHFR assays were: […] KPO4 (pH7.3), 250 mM KCl, 0.1 mM dihydrofolate, 0.1 mM NADPH, 1% DMSO, and 0.2 μg/mL recombinant human DHFR. The final volume of the assay was 800 μL in a semi-micro cuvet.
A decrease in absorbance at 340 nm was monitored for three minutes in a Cary spectrophotometer at 37° C. The concentrations used for each compound across a range of 10,000 to 0.08 nM, depending on the expected level of activity. The assays were done in triplicate for each compound. […] A minimum of seven concentrations were used to generate a curve, and IC50 values were calculated using the Standard Curve Analysis of Sigma Plot Enzyme Kinetics software.

In order of falling IC50:
1. Nc1nc(N)c2cc(CCc3ccc(CNCC[C@@H](O)C[C@@H](O)CC(=O)O)cc3)ccc2n1 [Inventive 2]  670 nM
2. Nc1nc(N)c2cc(CCc3ccc(C(=O)NCC[C@@H](O)C[C@@H](O)CC(=O)O)cc3)ccc2n1 [Inventive 1]  8.65 nM
3. C=C(CC(NC(=O)c1ccc(CCc2ccc3nc(N)nc(N)c3c2)cc1)C(=O)O)C(=O)O (stereo not drawn) [Comparative, 2-{4-[2-(2,4-diamino-quinazolin-6-yl)-ethyl]-benzoylamino}-4-methylidene-pentanedioic acid, reference compound]  5.4 nM
